Patent US7214535B2, “Glyphosate-tolerant 5-enolpyruvylshikimate-3-phosphate synthase and the gene encoding the same” (Peking University, priority 2002, dated 2007)

Tested on: strain 4G-1
Test: Growth of isolated strain 4G-1 on media comprising glyphosate or Ampicillin
Assay type: cell-based, Pseudomonas putida
Protocol: The sample were taken from neighborhood of a glyphosate producing factory in Hebei Province, China, and were diluted and spread on mediums comprising glyphosate. A total of 48 strains are isolated with high tolerance and degradation ability to glyphosate. One strain of them, 4G-1, is able to grow on a medium with 400 mM glyphosate, and is resistant to 100 mg/L Ampicillin. Said strain is selected for further studies.
The resulting products are purified by a purification method for PCR product, and are ligated to a T vector (Takara, Dalian) according to the instruction of manufacturer Takara to obtain plasmid pKU2000. […] Using BLAST software and BLASTP 2.2.2 [Dec. […] Thus, strain 4G-1 is thought to be P. putida, and is designated as P. putida 4G-1 (abbreviated as P. P4G-1). Said strain is deposited on Apr. 30, 2002 at the Chinese General Microbiological Culture Centre (CGMCC) (ZhongGuan Cun, Beijing, China) with the accession number CGMCC 0739.

SMILES | resistance of strain 4G-1 to Ampicillin (100 mg/L Ampicillin) | growth of strain 4G-1 on medium with glyphosate (400 mM glyphosate)
CC1(C)S[C@@H]2[C@H](NC(=O)[C@H](N)c3ccccc3)C(=O)N2[C@H]1C(=O)O [Ampicillin] | resistant | –
O=C(O)CNCP(=O)(O)O [glyphosate, N-phosphylmethyl glycine] | – | able to grow
